Positions of bridges follow the written chain, without caps; N, C: chain ends. No end group written: not given here.
Legend:
[1] = Circular dichroism spectroscopy, secondary structure estimation; assay type: physicochemical; conditions: calculated from previously published CD spectra
L. lactis MK43 = experiment: Antibacterial activity assay (MIC), two-fold serial dilutions in liquid medium; assay type: cell-based; conditions: MHB, 0.1% BSA, 37 °C, 24 h, no visible growth
Method in brief: (§1)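 MIC read as the minimum peptide concentration without visible growth, aided by 2 h resazurin (20 µg/mL) when needed. Cells from mid-log cultures (10^6 CFU/mL, 2x MHB or 3% TSB for Listeria) met two-fold bacteriocin dilutions in 0.1% BSA for 24 h at 37 °C with shaking.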

L. monocytogenes EGD [2] = assay type: cell-based, Listeria monocytogenes; conditions: 24 h
Method in brief: as §1

L. monocytogenes EGD [3] = experiment: Agar diffusion (spot-on-lawn) assay; assay type: cell-based, Listeria monocytogenes; conditions: 1–10 µg peptide spotted on 3% TSB agar, 37 °C, 24 h
Description: Additionally, the activity of bacteriocins against L. monocytogenes EGD was qualitatively determined using agar diffusion (“spot-on-lawn”) assay. An amount of 5 µL of water solutions containing 1–10 µg of purified bacteriocins were applied to agar plates containing 3% TSB medium with mid-log phase culture of L. monocytogenes EGD diluted to a OD600 of about 0.001 (≅7 × 10^5 CFU/mL) and incubated overnight at 37 °C for 24 h. Antibiotic tetracycline (0.5 µg) was used as a positive control. The formation of visible zones of bacterial growth inhibition in places where bacteriocins were added indicated the presence of antimicrobial activity.

M. phlei Ac-1221 = assay type: cell-based; conditions: 24 h
Method in brief: as §1

E. coli ML-35p = assay type: cell-based; conditions: 24 h
Method in brief: as §1

A. baumannii XDR CI 2675 = assay type: cell-based; conditions: XDR CI 2675, 24 h
Method in brief: as §1

B. licheniformis B-511 = assay type: cell-based; conditions: 24 h
Method in brief: as §1

[4] = test system: P. aeruginosa MDR CI 1995; assay type: cell-based; conditions: MDR CI 1995, 24 h
Method in brief: as §1

E. coli ATCC 25922 = assay type: cell-based; conditions: ATCC 25922, 24 h
Method in brief: as §1

L. lactis MK66 = assay type: cell-based; conditions: MK66, 24 h
Method in brief: as §1

B. subtilis B-886 = assay type: cell-based; conditions: B-886, 24 h
Method in brief: as §1

M. luteus Ac-2229 = assay type: cell-based; conditions: Ac-2229, 24 h
Method in brief: as §1

S. aureus 209P = assay type: cell-based; conditions: 24 h
Method in brief: as §1

E. coli SQ110 = assay type: cell-based; conditions: SQ110, 24 h
Method in brief: as §1

E. coli XDR CI 1057 = assay type: cell-based; conditions: XDR CI 1057, 24 h
Method in brief: as §1

TYYGNGVSCNKKGCSVDWGKAISIIGNNSAANLATGGAAGWKS (disulfide 9-14) [Avicin A]
Random ([1]; Aqueous solution): 39.3% | α-Helix ([1]; Aqueous solution): 5.8% | β-Sheet ([1]; Aqueous solution): 32.8% | β-Turn ([1]; Aqueous solution): 22.1% | Random ([1]; DPC micelles): 27.8% | α-Helix ([1]; DPC micelles): 19.4% | β-Sheet ([1]; DPC micelles): 28.6% | β-Turn ([1]; DPC micelles): 21.6% | Random ([1]; SDS micelles): 30.4% | α-Helix ([1]; SDS micelles): 19.7% | β-Sheet ([1]; SDS micelles): 29.3% | β-Turn ([1]; SDS micelles): 23.1% | Minimum Inhibitory Concentration (L. lactis MK43): >32 µM | Minimum Inhibitory Concentration (L. monocytogenes EGD [2]): <0.125 µM | Antimicrobial activity, zones of growth inhibition (qualitative) (L. monocytogenes EGD [3]): high activity | Antimicrobial activity, zones of growth inhibition (qualitative) (L. monocytogenes EGD [3]; listed as avicin A): presence of such activity | Minimum Inhibitory Concentration (M. phlei Ac-1221): >32 µM | Minimum Inhibitory Concentration (E. coli ML-35p): >32 µM | Minimum Inhibitory Concentration (A. baumannii XDR CI 2675): >32 µM | Minimum Inhibitory Concentration (B. licheniformis B-511): >32 µM | Minimum Inhibitory Concentration [4]: >32 µM | Minimum Inhibitory Concentration (E. coli ATCC 25922): >32 µM | Minimum Inhibitory Concentration (L. lactis MK66): >32 µM | Minimum Inhibitory Concentration (B. subtilis B-886): >32 µM | Minimum Inhibitory Concentration (M. luteus Ac-2229): >32 µM | Minimum Inhibitory Concentration (S. aureus 209P): >32 µM | Minimum Inhibitory Concentration (E. coli SQ110): >32 µM | Minimum Inhibitory Concentration (E. coli XDR CI 1057): >32 µM

From PMC9780942, “Antimicrobial Activity and Immunomodulatory Properties of Acidocin A, the Pediocin-like Bacteriocin with the Non-Canonical Structure” (Membranes, 2022)
